Test results reported in patent US20100204265A1 (priority 2009, published 2010).

Each compound was assayed on ET (Huh-lucubineo-ET) cell line harboring I389luc-ubi-neo/NS3-3′/ET HCV replicon (assay: Replicon assay (HCV replicon, luciferase readout)). Details: Hepatitis C virus.
Format: cell-based
Outline: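 Compounds at 10-point 2-fold dilutions (overall 0.1 nM to […], 0.5% DMSO) were applied to ET cells carrying a luciferase-neo HCV replicon, seeded a day earlier. After 48-72 hours, luciferase-based % inhibition was fitted with a Hill equation for EC50, and parallel WST-1 readings gave TC50.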

Structure (SMILES) | EC50
O=C(c1nc2c(C(F)(F)F)cc(-c3cncs3)cn2c1Cl)N1CC=C(c2ncccc2F)CC1 [Compound 119, (3-Chloro-6-thiazol-5-yl-8-trifluoromethyl-imidazo[1,2-a]pyridin-2-yl)-(3-fluoro-3′,6′-dihydro-2′H-[2,4′]bipyridinyl-1′-yl)-methanone] | 0.354 µM
CC(=O)NC(CO)C(=O)NCc1cn2cc(-c3ccoc3)cc(C(F)(F)F)c2n1 (stereo not drawn) [Compound 259, 2-Acetylamino-N-(6-furan-3-yl-8-trifluoromethyl-imidazo[1,2-a]pyridin-2-ylmethyl)-3-hydroxy-propionamide] | > 50 µM
CN(C)C(=O)C1CCCN1C(=O)c1cn2cc(-c3ccoc3)cc(C(F)(F)F)c2n1 (stereo not drawn) [Compound 281, 1-(6-Furan-3-yl-8-trifluoromethyl-imidazo[1,2-a]pyridine-2-carbonyl)-pyrrolidine-2-carboxylic acid dimethylamide] | > 50 µM
O=C1CCC=C1C1=CCN(C(=O)c2nc3c(C(F)(F)F)cc(-c4ccoc4)cn3c2Cl)CC1 [Compound 159, 2-[1-(3-Chloro-6-furan-3-yl-8-trifluoromethyl-imidazo[1,2-a]pyridine-2-carbonyl)-1,2,3,6-tetrahydro-pyridin-4-yl]-cyclopent-2-enone] | 0.247 µM
CN(C)CC(=O)NCc1cn2cc(-c3ccoc3)cc(C(F)(F)F)c2n1 [Compound 239, 2-Dimethylamino-N-(6-furan-3-yl-8-trifluoromethyl-imidazo[1,2-a]pyridin-2-ylmethyl)-acetamide] | > 50 µM
COC(=O)C(NC(=O)c1cn2cc(-c3ccoc3)cc(C(F)(F)F)c2n1)C(C)C (stereo not drawn) [Compound 256, 2-[(6-Furan-3-yl-8-trifluoromethyl-imidazo[1,2-a]pyridine-2-carbonyl)-amino]-3-methyl-butyric acid methyl ester] | > 50 µM
COC(=O)[C@@H](NC(=O)Cc1cn2cc(-c3ccoc3)cc(C(F)(F)F)c2n1)C(C)(C)C (stereo in doubt) [Compound 294, 2-[2-(6-Furan-3-yl-8-trifluoromethyl-imidazo[1,2-a]pyridin-2-yl)-acetylamino]-3,3-dimethyl-butyric acid methyl ester] | > 50 µM
O=C(c1nc2c(C(F)(F)F)cc(-c3ccoc3)cn2c1Cl)N1CCC(Nc2ncccn2)C1 (stereo not drawn) [Compound 183, (3-Chloro-6-furan-3-yl-8-trifluoromethyl-imidazo [1,2-a]pyridin-2-yl)-[3-(pyrimidin-2-ylamino)-pyrrolidin-1-yl]-methanone] | 55 µM
COC(=O)C(NC(=O)Cc1cn2cc(-c3ccoc3)cc(C(F)(F)F)c2n1)C(C)C (stereo not drawn) [Compound 310, 2-[2-(6-Furan-3-yl-8-trifluoromethyl-imidazo[1,2-a]pyridin-2-yl)-acetylamino]-3-methyl-butyric acid methyl ester] | > 50 µM
O=C(c1nc2c(C(F)(F)F)cc(-c3cn[nH]c3)cn2c1Cl)N1CCC(OCC2CC2)CC1 [Compound 174, [3-Chloro-6-(1H-pyrazol-4-yl)-8-trifluoromethyl-imidazo[1,2-a]pyridin-2-yl]-(4-cyclopropylmethoxy-piperidin-1-yl)-methanone] | 0.31 µM
COC(=O)CNC(=O)c1cn2cc(-c3ccoc3)cc(C(F)(F)F)c2n1 [Compound 246, [(6-Furan-3-yl-8-trifluoromethyl-imidazo[1,2-a]pyridine-2-carbonyl)-amino]-acetic acid methyl ester] | > 50 µM
O=C(c1nc2c(C(F)(F)F)cc(-c3ccoc3)cn2c1Cl)N1CC=C(C#Cc2cccnc2)CC1 [Compound 198, (3-Chloro-6-furan-3-yl-8-trifluoromethyl-imidazo[1,2-a]pyridin-2-yl)-(4-pyridin-3-ylethynyl-3,6-dihydro-2H-pyridin-1-yl)-methanone] | 14.6 µM
O=C(Cc1cn2cc(-c3ccoc3)cc(C(F)(F)F)c2n1)N1CCCC1c1cccs1 (stereo not drawn) [Compound 188, 2-(6-Furan-3-yl-8-trifluoromethyl-imidazo[1,2-a]pyridin-2-yl)-1-(2-thiophen-2-yl-pyrrolidin-1-yl)-ethanone] | > 50 µM
CC(C)[C@H](NC(=O)Cc1cn2cc(-c3ccoc3)cc(C(F)(F)F)c2n1)C(N)=O [Compound 297, 2-[2-(6-Furan-3-yl-8-trifluoromethyl-imidazol[1,2-a]pyridin-2-yl)-acetylamino]-3-methyl-butyramide] | > 50 µM
NC(=O)CNC(=O)c1cn2cc(-c3ccoc3)cc(C(F)(F)F)c2n1 [Compound 247, 6-Furan-3-yl-8-trifluoromethyl-imidazo[1,2-a]pyridine-2-carboxylic acid carbamoylmethyl-amide] | > 50 µM
CC(C)(C)C#CC1=CCN(C(=O)c2nc3c(C(F)(F)F)cc(-c4ccoc4)cn3c2Cl)CC1 [Compound 199, (3-Chloro-6-furan-3-yl-8-trifluoromethyl-imidazo[1,2-a]pyridin-2-yl)-[4-(3,3-dimethyl-but-1-ynyl)-3,6-dihydro-2H-pyridin-1-yl]-methanone] | > 50 µM
COC(=O)C(NC(=O)c1cn2cc(-c3ccoc3)cc(C(F)(F)F)c2n1)c1ccccc1 (stereo not drawn) [Compound 255, [(6-Furan-3-yl-8-trifluoromethyl-imidazo[1,2-a]pyridine-2-carbonyl)-amino]-phenyl-acetic acid methyl ester] | > 50 µM

Structure (SMILES) | EC50
O=C(Cc1cn2cc(-c3ccoc3)cc(C(F)(F)F)c2n1)NS(=O)(=O)c1cccs1 [Compound 189, Thiophene-2-sulfonic acid [2-(6-furan-3-yl-8-trifluoromethyl-imidazo[1,2-a]pyridin-2-yl)-acetyl]-amide] | > 50 µM
O=C(Cc1cn2cc(-c3ccoc3)cc(C(F)(F)F)c2n1)Nc1nccs1 [Compound 184, 2-(6-Furan-3-yl-8-trifluoromethyl-imidazo[1,2-a]pyridin-2-yl)-N-thiazol-2-yl-acetamide] | > 50 µM
N#CCc1cn2cc(-c3ccoc3)cc(C(F)(F)F)c2n1 [Compound 236, (6-Furan-3-yl-8-trifluoromethyl-imidazo[1,2-a]pyridin-2-yl)-acetonitrile] | > 50 µM
COC(=O)CNC(=O)Cc1cn2cc(-c3ccoc3)cc(C(F)(F)F)c2n1 [Compound 290, [2-(6-Furan-3-yl-8-trifluoromethyl-imidazo[1,2-a]pyridin-2-yl)-acetylamino]-acetic acid methyl ester] | > 50 µM
O=C(c1nc2c(C(F)(F)F)cc(-c3cn[nH]c3)cn2c1Cl)N1CC=C(c2cccnc2)C1 [Compound 134, [3-Chloro-6-(1H-pyrazol-4-yl)-8-trifluoromethyl-imidazo[1,2-a]pyridin-2-yl]-(3-pyridin-3-yl-2,5-dihydro-pyrrol-1-yl)-methanone] | 0.188 µM
O=C(c1ccccc1)C1CCN(C(=O)c2nc3c(C(F)(F)F)cc(-c4ccoc4)cn3c2Cl)CC1 [Compound 194, (4-Benzoyl-piperidin-1-yl)-(3-chloro-6-furan-3-yl-8-trifluoromethyl-imidazo[1,2-a]pyridin-2-yl)-methanone] | 0.889 µM
O=C(c1cc2c(C(F)(F)F)cc(-c3cccs3)nc2[nH]1)N1CC=C(c2ncccc2F)CC1 [Compound 116, (3-Fluoro-3′,6′-dihydro-2′H-[2,4′]bipyridinyl-1′-yl)-(6-thiophen-2-yl-4-trifluoromethyl-1H-pyrrolo[2,3-b]pyridin-2-yl)-methanone] | 24.4 µM
CCOCCOC1CCN(C(=O)c2nc3c(C(F)(F)F)cc(-c4cn[nH]c4)cn3c2Cl)C1 (stereo not drawn) [Compound 233, [3-Chloro-6-(1H-pyrazol-4-yl)-8-trifluoromethyl-imidazo[1,2-a]pyridin-2-yl]-[3-(2-ethoxy-ethoxy)-pyrrohdin-1-yl]-methanone] | > 50 µM
O=C(N[C@@H]1CCN(C(=O)c2nc3c(C(F)(F)F)cc(-c4ccoc4)cn3c2Cl)C1)OCCCl (stereo in doubt) [Compound 321, [1-(3-Chloro-6-furan-3-yl-8-trifluoromethyl-imidazo[1,2-a]pyridine-2-carbonyl)-pyrrolidin-3-yl]-carbamic acid 2-chloro-ethyl ester] | > 50 µM
COC(=O)C1CCCN1C(=O)Cc1cn2cc(-c3ccoc3)cc(C(F)(F)F)c2n1 (stereo not drawn) [Compound 307, 1-[2-(6-Furan-3-yl-8-trifluoromethyl-imidazo[1,2-a]pyridin-2-yl)-acetyl]-pyrrolidine-2-carboxylic acid methyl ester] | > 50 µM
FC(F)(F)c1cc(-c2ccoc2)cn2cc(Cc3nc(Cc4ccccc4)no3)nc12 [Compound 230, 2-(3-Benzyl-[1,2,4]oxadiazol-5-ylmethyl)-6-furan-3-yl-8-trifluoromethyl-imidazo[1,2-a]pyridine] | > 50 µM
O=C(NC1CCC(c2ccccc2)CC1)c1nc2c(C(F)(F)F)cc(-c3ccoc3)cn2c1Cl (stereo not drawn) [Compound 193, 3-Chloro-6-furan-3-yl-8-trifluoromethyl-imidazo[1,2-a]pyridine-2-carboxylic acid (4-phenyl-cyclohexyl)-amide] | 2.5 µM
O=C(c1nc2c(C(F)(F)F)cc(C3=CCCC3)cn2c1Cl)N1CC=C(c2ncccc2F)CC1 [Compound 151, (3-Chloro-6-cyclopent-1-enyl-8-trifluoromethyl-imidazo[1,2-a]pyridin-2-yl)-(3-fluoro-3′,6′-dihydro-2′H-[2,4′]bipyridinyl-1′-yl)-methanone] | 0.734 µM
CC(C(=O)NCc1cn2cc(-c3ccoc3)cc(C(F)(F)F)c2n1)N(C)C (stereo not drawn) [Compound 262, 2-Dimethylamino-N-(6-furan-3-yl-8-trifluoromethyl-imidazo[1,2-a]pyridin-2-ylmethyl)-propionamide] | > 50 µM
CC(O)C(NC(=O)c1cn2cc(-c3ccoc3)cc(C(F)(F)F)c2n1)C(=O)O (stereo not drawn) [Compound 269, 2-[(6-Furan-3-yl-8-trifluoromethyl-imidazo[1,2-a]pyridine-2-carbonyl)-amino]-3-hydroxy-butyric acid] | > 50 µM
O=C(c1nc2c(C(F)(F)F)cc(-c3ccoc3)cn2c1Cl)N1CCC(O)(c2nccs2)CC1 [Compound 224, (3-Chloro-6-furan-3-yl-8-trifluoromethyl-imidazo[1,2-a]pyridin-2-yl)-(4-hydroxy-4-thiazol-2-yl-piperidin-1-yl)-methanone] | 3.5 µM
